The values below come from US7790884B2, “Acylaminopiperidine compound” (Astellas Pharma Inc., priority 2006, dated 2010).

Counter-ions that a name gives are not always drawn.

The target in this experiment is T1, human CCR4 (Homo sapiens, UniProt P51679).
T1 construct: expressed in transfected cells; membrane fraction used
T1 sequence (P51679 1-360): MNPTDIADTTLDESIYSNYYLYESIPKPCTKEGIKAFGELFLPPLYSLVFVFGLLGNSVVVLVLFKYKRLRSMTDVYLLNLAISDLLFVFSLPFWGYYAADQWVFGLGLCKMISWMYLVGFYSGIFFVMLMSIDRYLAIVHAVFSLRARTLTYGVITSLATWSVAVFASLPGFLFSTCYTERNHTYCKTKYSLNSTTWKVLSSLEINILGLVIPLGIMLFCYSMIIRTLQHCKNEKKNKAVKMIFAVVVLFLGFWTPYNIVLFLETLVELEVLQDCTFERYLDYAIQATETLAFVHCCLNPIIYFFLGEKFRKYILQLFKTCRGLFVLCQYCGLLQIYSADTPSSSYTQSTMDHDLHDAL
As to the kind of experiment: [35S]GTPγS binding test via CCR4 (human MDC-stimulated, human CCR4 expressing cell line membrane fraction). It counts as biochemical. The settings on record: membrane fraction of human CCR4 expressing B300-16 cells, room temperature 1 hour 30 minutes, read-out: inhibitory activity value (IC50). The protocol:
Action for [^35S]GTPγS Binding Test Via CCR4 (1) Preparation of Human CCR4 Expressing Cell Line A vector (contains a neomycin-resistance gene) in which human CCR4 gene was inserted into downstream of the EF-1α promoter was prepared and transfected into a mouse pre B cell line B300-16 cells by electroporation. These cells were cultured using a G-418-supplemented medium, and a single cell line capable of producing human CCR4 constantly and stably was obtained by the limiting dilution method. (2) Preparation of Human CCR4 Expressing Cell Line Membrane Fraction The human CCR4 expressing cells were recovered, washed with PBS and then suspended in a lysis buffer (10 mM HEPES pH 7.5, 2 mM EDTA, proteinase inhibitor). After allowing the suspension to stand on ice for 15 minutes, the cells were disintegrated using a homogenizer and centrifuged (2000 rpm, 10 min, 4° C.). The supernatant was further subjected to ultracentrifugation (22 K, 30 min, 4° C.), and then the pellet was suspended in PBS and used in the subsequent test. (3) GTPγS Binding Test In a reaction mixture liquid containing 20 mM of HEPES pH 7.05, 100 mM of NaCl, 5 mM of MgCl2, 2 μM of GDP, human MDC, […] of [^35S]GTPγS, 1 mg of wheat germ agglutinin SPA beads and 1 μg of the human CCR4 expressing cell line membrane fraction, respective concentration of the test compound was allowed to undergo the reaction at room temperature for 1 hour and 30 minutes, and the radioactivity was measured.
Consider `CCN(C(=O)[C@@H]1CCCN1C)C1CCN(c2nc(Nc3ccc(Cl)cc3F)c3cc(F)ccc3n2)CC1` [Example 49], for which the IC50 is not above 100 nM.

As to `CN(C(=O)[C@H]1CCCN1)C1CCN(c2nc(Nc3ccc(Cl)cc3F)c3cc(Br)ccc3n2)CC1` [Example 27], the 50% inhibitory concentration (IC50) was not above 100 nM.

As for `CCN(C(=O)[C@@H]1CCCN1C)C1CCN(c2nc(Nc3ccc(Cl)cc3)c3cc(Br)ccc3n2)CC1` [Example 59], the 50% inhibitory concentration (IC50) is not above 100 nM.

As for `CN(C(=O)[C@@H]1CCCN1)C1CCN(c2nc(Nc3ccc(Cl)cc3F)c3ccc(C#N)cc3n2)CC1` [Example 5], the IC50 is not above 100 nM.

With `CN(C(=O)[C@@H]1CCCN1)C1CCN(c2nc(Nc3ccc(Cl)cc3F)c3cnn(CC(F)(F)F)c3n2)CC1` [Example 101], the concentration for half-maximal inhibition (IC50) is not above 100 nM.

`CN(C(=O)[C@H]1CCCN1)C1CCN(c2nc(Nc3ccc(Cl)cc3F)c3cnn(C)c3n2)CC1` [Example 95]: the 50% inhibitory concentration (IC50) was not above 100 nM.

`COc1cc2nc(N3CCC(N(C)C(=O)[C@H]4CCCN4)CC3)nc(NCc3ccc(Cl)cc3F)c2cc1F` [Example 79]: the IC50 was not above 100 nM.

Turning to `CCN(C(=O)[C@@H]1CCCN1)C1CCN(c2nc(Nc3ccc(Cl)cc3F)c3ccc(C#N)cc3n2)CC1` [Example 69], the IC50 is not above 100 nM.

As for `CN(C(=O)[C@@H]1CCCN1C)C1CCN(c2nc(Nc3ccc(Cl)cc3F)c3cc(F)ccc3n2)CC1` [Example 31], the IC50 is not above 100 nM.

On to `CN(C(=O)[C@H]1CCCN1C)C1CCN(c2nc(Nc3ccc(Cl)cc3F)c3cc(Br)ccc3n2)CC1` [Example 22], for which the half-inhibitory concentration (IC50) was not above 100 nM.

As for `CN(C(=O)[C@H]1CCCN1)C1CCN(c2nc(Nc3ccc(Cl)cc3F)c3cc(F)ccc3n2)CC1` [Example 30], the half-inhibitory concentration (IC50) was not above 100 nM.

Take `COc1cc2nc(N3CCC(N(C)C(=O)[C@@H]4CCCN4C)CC3)nc(Nc3ccc(Cl)cc3F)c2cc1F` [Example 6]: the IC50 was not above 100 nM.

As to `CCN(C(=O)[C@@H]1CCCN1)C1CCN(c2nc(Nc3ccc(Cl)cc3F)c3cc(Br)ccc3n2)CC1` [Example 55], the concentration for half-maximal inhibition (IC50) was not above 100 nM.

Turning to `COc1cc2nc(N3CCC(N(C)C(=O)[C@H]4CCCN4CCO)CC3)nc(Nc3ccc(Cl)cc3F)c2cc1F` [Example 77], the 50% inhibitory concentration (IC50) was not above 100 nM.

For `COc1cc2nc(N3CCC(N(C)C(=O)[C@H]4CCCN4)CC3)nc(Nc3cc(F)c(F)cc3F)c2cc1F` [Example 72], the IC50 was not above 100 nM.

Turning to `COc1cc2nc(N3CCC(N(C)C(=O)[C@H]4CCCN4)CC3)nc(Nc3ccc(Cl)cc3F)c2cc1OC` [Example 10], the IC50 was not above 100 nM.

In the case of `CCN(C(=O)[C@@H]1CCCN1)C1CCN(c2nc(Nc3ccc(Cl)cc3F)c3cc(OC)c(OC)cc3n2)CC1` [Example 9], the half-inhibitory concentration (IC50) is not above 100 nM.

Take `COc1cc2c(Nc3ccc(Cl)cc3F)nc(N3CCC(N(C)C(=O)[C@H]4CCCN4)CC3)nc2cc1F` [Example 35]: the IC50 is not above 100 nM.

As for `COc1cc2nc(N3CCC(N(C)C(=O)[C@H]4CCCN4CC(O)CO)CC3)nc(Nc3ccc(Cl)cc3F)c2cc1F` (stereo partly drawn) [Example 80], the half-inhibitory concentration (IC50) is not above 100 nM.

Turning to `COc1cc2nc(N3CCC(N(C(=O)[C@H]4CCCCN4)C4CC4)CC3)nc(Nc3ccc(Cl)cc3F)c2cc1OC` [Example 90], the IC50 is not above 100 nM.

Turning to `CN(C(=O)[C@@H]1CCCN1C)C1CCN(c2nc(Nc3ccc(Cl)cc3F)c3cc(Br)ccc3n2)CC1` [Example 7], the concentration for half-maximal inhibition (IC50) was not above 100 nM.

On to `CCN(C(=O)[C@H]1CCCN1C)C1CCN(c2nc(Nc3ccc(Cl)cc3F)c3cc(F)ccc3n2)CC1` [Example 50], for which the IC50 was not above 100 nM.

Turning to `COc1cc2nc(N3CCC(N(C(=O)[C@H]4CCCCN4)C4CCC4)CC3)nc(Nc3ccc(Cl)cc3F)c2cc1OC` [Example 91], the IC50 was not above 100 nM.

`COc1cc2nc(N3CCC(N(C)C(=O)[C@H]4CCCN4C)CC3)nc(Nc3ccc(Cl)cc3F)c2cc1F` [Example 66]: the 50% inhibitory concentration (IC50) was not above 100 nM.

`CCN(C(=O)[C@@H]1CCCN1)C1CCN(c2nc(Nc3ccc(Cl)cc3F)c3cc(F)ccc3n2)CC1` [Example 48]: the IC50 was not above 100 nM.

`COc1cc2nc(N3CCC(N(C(=O)[C@@H]4CCCN4C)C4CC4)CC3)nc(Nc3ccc(Cl)cc3F)c2cc1OC` [Example 20]: the 50% inhibitory concentration (IC50) was not above 100 nM.

Regarding `CN(C(=O)[C@H]1CCCN1)C1CCN(c2nc(Nc3ccc(Cl)cc3)c3cc(Br)ccc3n2)CC1` [Example 44], the half-maximal inhibitory concentration (IC50) was not above 100 nM.

In the case of `CN(C(=O)[C@@H]1CCCN1)C1CCN(c2nc(Nc3ccc(Cl)cc3)c3cc(Br)ccc3n2)CC1` [Example 43], the IC50 is not above 100 nM.

`CCN(C(=O)[C@@H]1CCCN1)C1CCN(c2nc(Nc3ccc(Cl)cc3)c3cc(F)ccc3n2)CC1` [Example 53]: the IC50 was not above 100 nM.

Turning to `CN(C(=O)[C@@H]1CCCN1C)C1CCN(c2nc(Nc3ccc(Cl)cc3)c3cc(F)ccc3n2)CC1` [Example 41], the 50% inhibitory concentration (IC50) is not above 100 nM.

`CCN(C(=O)[C@H]1CCCN1C)C1CCN(c2nc(Nc3ccc(Cl)cc3F)c3cc(Br)ccc3n2)CC1` [Example 58]: the IC50 was not above 100 nM.

For the compound `CCN(C(=O)[C@H]1CCCN1)C1CCN(c2nc(Nc3ccc(Cl)cc3F)c3cc(F)c(OC)cc3n2)CC1` [Example 65], the IC50 was not above 100 nM.

Regarding `CCN(C(=O)[C@H]1CCCN1C)C1CCN(c2nc(Nc3ccc(Cl)cc3F)c3ccc(C#N)cc3n2)CC1` [Example 24], the IC50 is not above 100 nM.

In the case of `CCN(C(=O)[C@@H]1CCCN1C)C1CCN(c2nc(Nc3ccc(Cl)cc3)c3cc(F)ccc3n2)CC1` [Example 51], the IC50 is not above 100 nM.

Consider `CN(C(=O)[C@H]1CCCN1)C1CCN(c2nc(Nc3ccc(Cl)cc3)c3cc(F)ccc3n2)CC1` [Example 39], for which the IC50 is not above 100 nM.

Take `COc1cc2nc(N3CCC(N(C)C(=O)[C@@H]4CCCN4)CC3)nc(Nc3ccc(Cl)cc3F)c2cc1OC` [Example 2, N-(1-{4-[(4-chloro-2-fluorophenyl)amino]-6,7-dimethoxyquinazolin-2-yl}piperidin-4-yl)-N-methyl-L-prolinamide dihydrochloride]: the IC50 is not above 100 nM.

Regarding `CN(C(=O)[C@H]1CCCN1C)C1CCN(c2nc(Nc3ccc(Cl)cc3F)c3cc(F)ccc3n2)CC1` [Example 32], the 50% inhibitory concentration (IC50) is not above 100 nM.

`COc1cc2nc(N3CCC(N(C)C(=O)[C@H]4CCCN4C)CC3)nc(Nc3ccc(Cl)cc3F)c2cc1OC` [Example 19]: the IC50 was not above 100 nM.

With `CCN(C(=O)[C@@H]1CCCN1)C1CCN(c2nc(Nc3ccc(Cl)cc3)c3cc(Br)ccc3n2)CC1` [Example 64], the IC50 was not above 100 nM.

Regarding `CCN(C(=O)[C@H]1CCCN1C)C1CCN(c2nc(Nc3ccc(Cl)cc3)c3cc(Br)ccc3n2)CC1` [Example 60], the IC50 is not above 100 nM.

On to `CCN(C(=O)[C@H]1CCCN1)C1CCN(c2nc(Nc3ccc(Cl)cc3F)c3cc(Br)ccc3n2)CC1` [Example 56], for which the IC50 was not above 100 nM.

Regarding `CCN(C(=O)[C@H]1CCCN1)C1CCN(c2nc(Nc3ccc(Cl)cc3)c3cc(Br)ccc3n2)CC1` [Example 45], the 50% inhibitory concentration (IC50) was not above 100 nM.

Consider `CN(C(=O)[C@H]1CCCN1)C1CCN(c2nc(NCc3ccc(Cl)cc3F)c3cnn(CC(F)(F)F)c3n2)CC1` [Example 106], for which the IC50 is not above 100 nM.

On to `COc1cc2nc(N3CCC(N(C)C(=O)[C@@H]4CCCN4)CC3)nc(Nc3ccc(Cl)cc3F)c2cc1F` [Example 61], for which the half-inhibitory concentration (IC50) was not above 100 nM.

As for `CCn1ncc2c(Nc3ccc(Cl)cc3F)nc(N3CCC(N(C)C(=O)[C@H]4CCCN4C)CC3)nc21` [Example 100], the IC50 is not above 100 nM.

In the case of `COc1cc2nc(N3CCC(N(C)C(=O)[C@H]4CCCN4)CC3)nc(Nc3ncc(Cl)cc3Cl)c2cc1F` [Example 75], the IC50 is not above 100 nM.

As to `COc1cc2nc(N3CCC(N(C)C(=O)[C@H]4CCCCN4)CC3)nc(Nc3ccc(Cl)cc3F)c2cc1OC` [Example 87], the 50% inhibitory concentration (IC50) was not above 100 nM.

For `COc1cc2nc(N3CCC(N(C)C(=O)[C@H]4CCCN4)CC3)nc(Nc3ccc(Cl)cc3F)c2cc1F` [Example 62], the IC50 was not above 100 nM.

As for `CN(C(=O)[C@H]1CCCN1C)C1CCN(c2nc(Nc3ccc(Cl)cc3)c3cc(Br)ccc3n2)CC1` [Example 47], the IC50 was not above 100 nM.

Regarding `CCN(C(=O)[C@H]1CCCN1)C1CCN(c2nc(Nc3ccc(Cl)cc3)c3cc(F)ccc3n2)CC1` [Example 40], the IC50 was not above 100 nM.

For the compound `COc1cc2nc(N3CCC(N(C)C(=O)[C@H]4CCCN4)CC3)nc(Nc3ccc(F)cn3)c2cc1F` [Example 76], the half-inhibitory concentration (IC50) was not above 100 nM.

`CCn1ncc2c(NCc3ccc(Cl)cc3F)nc(N3CCC(N(C)C(=O)[C@H]4CCCN4)CC3)nc21` [Example 105]: the IC50 was not above 100 nM.

Regarding `COc1cc2c(Nc3ccc(Cl)cc3F)nc(N3CCC(N(C)C(=O)[C@H]4CCCN4C)CC3)nc2cc1F` [Example 37], the IC50 is not above 100 nM.

As for `CCN(C(=O)[C@H]1CCCN1)C1CCN(c2nc(Nc3ccc(Cl)cc3F)c3cc(OC)c(OC)cc3n2)CC1` [Example 12], the IC50 was not above 100 nM.
